“And” between values parts separate entries of the source, which are not always exact repeats. Identical values can stand only once. Toxic doses and inconclusive results are not listed. No stated cut-off is given here; in the data, active means T/C of 150% or more; inactive means T/C below 125%.
System: L1210 leukemia ip in BDF1 mice, survival T/C
Assay: NCI In Vivo Anticancer Drug Screen. Data for tumor model L1210 Leukemia (intraperitoneal) in B6D2F1 (BDF1) mice
Settings: endpoint: mean survival time, higher = longer survival
Procedure, shortened: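 Value reflects the ratio of survival in compound-treated mice to survival in vehicle-treated controls, with both groups carrying the same transplanted tumor.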

[1] = dose: 100.0 mg/kg/injection, schedule: Q01DX001 (ip), vehicle: carboxymethylcellulose (CMC)
[2] = dose: 200.0 mg/kg/injection, schedule: Q01DX001 (ip), vehicle: carboxymethylcellulose (CMC)
[3] = dose: 400.0 mg/kg/injection, schedule: Q01DX001 (ip), vehicle: carboxymethylcellulose (CMC)
[4] = dose: 100.0 mg/kg/injection, schedule: Q04DX003 (ip), vehicle: saline with Tween-80
[5] = dose: 200.0 mg/kg/injection, schedule: Q04DX003 (ip), vehicle: saline with Tween-80
[6] = dose: 400.0 mg/kg/injection, schedule: Q04DX003 (ip), vehicle: saline with Tween-80
[7] = dose: 100.0 mg/kg/injection, schedule: Q01DX009 (ip), vehicle: Klucel (hydroxypropylcellulose) (HPC)
[8] = dose: 200.0 mg/kg/injection, schedule: Q01DX009 (ip), vehicle: Klucel (hydroxypropylcellulose) (HPC)
[9] = dose: 400.0 mg/kg/injection, schedule: Q01DX009 (ip), vehicle: Klucel (hydroxypropylcellulose) (HPC)

Measured: T/C

Cc1cc(NC(=O)Nc2ccc(F)cc2)no1
inactive: [1] 100 % of control | dose: 100.0 mg/kg/injection, schedule: Q01DX009 (ip), vehicle: carboxymethylcellulose (CMC) 97 % of control and 105 % of control | dose: 100.0 mg/kg/injection, schedule: Q04DX002 (ip), vehicle: carboxymethylcellulose (CMC) 104 % of control | [2] 97 % of control | dose: 200.0 mg/kg/injection, schedule: Q01DX009 (ip), vehicle: carboxymethylcellulose (CMC) 97 % of control | dose: 200.0 mg/kg/injection, schedule: Q04DX002 (ip), vehicle: carboxymethylcellulose (CMC) 92 % of control and 102 % of control | [3] 101 % of control | dose: 400.0 mg/kg/injection, schedule: Q01DX009 (ip), vehicle: carboxymethylcellulose (CMC) 94 % of control and 95 % of control | dose: 400.0 mg/kg/injection, schedule: Q04DX002 (ip), vehicle: carboxymethylcellulose (CMC) 92 % of control and 94 % of control

N#CCc1ccccc1N(C(=O)CCl)C(=O)CCl
inactive: dose: 100.0 mg/kg/injection, schedule: Q01DX001 (ip), vehicle: saline sonified 98 % of control | dose: 200.0 mg/kg/injection, schedule: Q01DX001 (ip), vehicle: saline sonified 103 % of control | dose: 400.0 mg/kg/injection, schedule: Q01DX001 (ip), vehicle: saline sonified 103 % of control

Cn1cc([N+](=O)[O-])c(=O)n(C)c1=O
inactive: dose: 50.0 mg/kg/injection, schedule: Q01DX001 (ip), vehicle: carboxymethylcellulose (CMC) 93 % of control | [1] 98 % of control | [2] 102 % of control | [3] 104 % of control

COC1=C(Nc2ccc(C)cc2)C(=O)C(OC)=C(Nc2ccc(C)cc2)C1=O
inactive: dose: 50.0 mg/kg/injection, schedule: Q01DX001 (ip), vehicle: saline 98 % of control | dose: 100.0 mg/kg/injection, schedule: Q01DX001 (ip), vehicle: saline 93 % of control | dose: 200.0 mg/kg/injection, schedule: Q01DX001 (ip), vehicle: saline 95 % of control

O=C(CBr)CCS(=O)(=O)c1ccc(Cl)cc1
inactive: dose: 5.0 mg/kg/injection, schedule: Q01DX009 (ip), vehicle: saline with Tween-80 102 % of control | dose: 5.0 mg/kg/injection, schedule: Q04DX003 (ip), vehicle: saline with Tween-80 101 % of control | dose: 10.0 mg/kg/injection, schedule: Q01DX009 (ip), vehicle: saline with Tween-80 104 % of control | dose: 10.0 mg/kg/injection, schedule: Q04DX003 (ip), vehicle: saline with Tween-80 103 % of control | dose: 20.0 mg/kg/injection, schedule: Q01DX009 (ip), vehicle: saline with Tween-80 97 % of control | dose: 20.0 mg/kg/injection, schedule: Q04DX003 (ip), vehicle: saline with Tween-80 97 % of control

CC(C)(C)OC(=O)N1C2CCC(C2)N1C(=O)OC(C)(C)C
inactive: [1] 100 % of control | [2] 96 % of control | [3] 96 % of control

O=[N+]([O-])c1ccc(OCCCCOc2ccccc2)cc1
inactive: dose: 100.0 mg/kg/injection, schedule: Q01DX009 (ip), vehicle: saline 110 % of control | dose: 200.0 mg/kg/injection, schedule: Q01DX009 (ip), vehicle: saline 96 % of control | dose: 400.0 mg/kg/injection, schedule: Q01DX009 (ip), vehicle: saline 92 % of control

[Br][La]([Br])[Br]
inactive: dose: 100.0 mg/kg/injection, schedule: Q04DX003 (ip), vehicle: saline 89 % of control | dose: 200.0 mg/kg/injection, schedule: Q04DX003 (ip), vehicle: saline 91 % of control | dose: 400.0 mg/kg/injection, schedule: Q04DX003 (ip), vehicle: saline 91 % of control

CC(C(=O)c1ccccc1)C(c1ccccc1)N1CCOCC1 (stereo not given)
inactive: [4] 106 % of control | [5] 101 % of control | [6] 100 % of control

CN(C(=O)N(C)c1ccccc1)c1ccccc1
inactive: [7] 102 % of control | dose: 100.0 mg/kg/injection, schedule: Q04DX003 (ip), vehicle: Klucel (hydroxypropylcellulose) (HPC) 103 % of control | [8] 96 % of control | dose: 200.0 mg/kg/injection, schedule: Q04DX003 (ip), vehicle: Klucel (hydroxypropylcellulose) (HPC) 103 % of control | [9] 95 % of control | dose: 400.0 mg/kg/injection, schedule: Q04DX003 (ip), vehicle: Klucel (hydroxypropylcellulose) (HPC) 103 % of control

O=C1C(=C(C(F)(F)Cl)C(F)(F)Cl)C2CCC1C2 (stereo not given)
inactive: dose: 6.25 mg/kg/injection, schedule: Q01DX009 (ip), vehicle: saline with Tween-80 95 % of control | dose: 12.0 mg/kg/injection, schedule: Q01DX001 (ip), vehicle: saline with Tween-80 104 % of control | dose: 12.5 mg/kg/injection, schedule: Q01DX009 (ip), vehicle: saline with Tween-80 95 % of control | dose: 25.0 mg/kg/injection, schedule: Q01DX001 (ip), vehicle: saline with Tween-80 100 % of control | dose: 25.0 mg/kg/injection, schedule: Q01DX009 (ip), vehicle: saline with Tween-80 102 % of control and 92 % of control | dose: 50.0 mg/kg/injection, schedule: Q01DX001 (ip), vehicle: saline with Tween-80 100 % of control | dose: 50.0 mg/kg/injection, schedule: Q01DX009 (ip), vehicle: saline with Tween-80 107 % of control | dose: 100.0 mg/kg/injection, schedule: Q01DX001 (ip), vehicle: saline with Tween-80 91 % of control

CCS(=O)(=O)Nc1ccc(NS(=O)(=O)CC)cc1
inactive: [7] 96 % of control | [8] 100 % of control | [9] 101 % of control

CC1(C)C2CCC(=O)C1C2 (stereo not given)
inactive: [4] 101 % of control | [5] 96 % of control | [6] 96 % of control

Cc1cc(OC(=O)Nc2cccc(Cl)c2Cl)c(C(C)C)cc1Cl
inactive: [7] 97 % of control | [8] 94 % of control | [9] 100 % of control

— PubChem BioAssay AID248 (DTP/NCI, 2004)
